We go through 8 compounds from patent publication US11767298B2, “Substituted benzimidazoles as inhibitors of transforming growth factor-β kinase” (Duke University, priority 2016, dated 2023).

In one data set the target is T1, TAK1-TAB1 (Homo sapiens, UniProt O43318).
T1 sequence (O43318 with tags, fused parts or gaps limits assumed): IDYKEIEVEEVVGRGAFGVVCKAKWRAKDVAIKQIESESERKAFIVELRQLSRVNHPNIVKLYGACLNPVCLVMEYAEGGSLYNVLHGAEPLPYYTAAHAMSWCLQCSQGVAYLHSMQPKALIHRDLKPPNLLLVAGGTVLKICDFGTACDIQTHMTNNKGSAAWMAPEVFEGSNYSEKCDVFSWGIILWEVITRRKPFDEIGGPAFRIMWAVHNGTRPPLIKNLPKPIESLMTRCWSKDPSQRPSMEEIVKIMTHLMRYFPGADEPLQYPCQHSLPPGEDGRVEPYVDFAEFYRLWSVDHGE
Put plainly: TAK1-TAB1 kinase assay ([32P]-ATP). The settings on record: compared to 206 (FIG. 14). It is filed as biochemical. The method, then:
Kinase Assay. […] In brief, TAK1-TAB1 (50 ng/well) was incubated with 5 μM ATP containing radiolabeled [^32P]-ATP in the presence of 300 μM substrate peptide ([…]) in a final volume of 40 μl in the presence of buffer (containing 50 mM Tris pH 7.5, 0.1 mM EGTA, 0.1% β-Mercaptoethanol, 10 mM magnesium acetate, 0.5 mM MnCl) and indicated compounds. The reaction was let go for 10 min and stopped with 10 μl concentrated H3PO4. The remaining activity was measured using a scintillation counter. Dose-response curves were repeated 3 times. For kinetic mechanistic studies, experiments were repeated two times and averaged.
A challenge in designing chemical biology probes lies in choosing an appropriate ligand for a protein target and developing chemistry that allows attachment of a linker without disrupting activity of the ligand. […] The focus was on modifying the aminobenzimidazole moiety.

For the next data set, the target named is GFP-PfPK9 (Plasmodium falciparum, UniProt Q8IEG4). In words: ATP-competitive binding assay (ATP-sepharose pull-down, FLECS). The method, then: Primary small-molecule screen. A small-molecule screen was performed similar to a previously reported fluorescence linked enzyme chemoproteomic strategy (FLECS). Briefly, HEK293-GFP-PfPK9 cells were grown in 182-cm^2 tissue culture flasks (Genesee Scientific) and harvested at ˜80% cell confluency. Before assays the culture medium was aspirated, cells were rinsed with ice cold PBS and then they were removed with a cell scraper. Cells were pelleted by centrifugation (2,000 rpm, 4° C., 2 min) and immediately lysed for assays. The pellet was suspended in buffer A (25 mM HEPES, pH 7.4, 150 mM NaCl, 60 mM MgCl2, 1 mM DTT) with 1 μM microcystin, 0.1% Triton X-100 plus a Roche Complete protease inhibitor tablet and then placed on ice for 30 min to facilitate lysis. The supernatant was collected after centrifugation (4,300 rpm, 4° C., 5 min) and used in subsequent screening and titrations experiments. For screening, the supernatant was added to ATP-sepharose beads (1:1) and incubated with agitation at 4° C. for at least 1 hr to allow binding. Following this incubation, the mixture was centrifuged, the ATP resin was washed with 9 column volumes of buffer A with 1 M NaCl and then 9 column volumes of buffer A. The ATP-sepharose medium was reconstituted as a 1:1 slurry with buffer A and then added to 96-well filter plates (50 μL/well) (Corning #3505) using a multichannel pipette (Rainin). The filter plate was on top of black 96-well catch plates (Corning #3915). An ATP dilution series (1-200 mM) was added to each plate as a positive control and DMSO was the negative control. Compounds and controls were all added to 50 μL per well in buffer A. For screening, compounds were tested in singlicate at 500 μM. The final DMSO concentration in every well was 5%. The fluorescence intensity in each well was measured on an EnVision system. Data analyses of screens were carried out in EXCEL (Microsoft, Corp.) and actives were identified as 2×background signal.
All screening positives that were verified with Western blot analysis were purchased from Enamine or Vitas-M laboratory. The purity of compounds 1-5 (shown below) was verified by high-resolution MS (Agilent). Compounds were tested in 8-point dose-response (0-500 μM) experiments in duplicate, essential as described above. The fluorescence intensity in each well was measured using an EnVision system. Dose-response analysis was performed with GraphPad Prism to acquire EC50 values. Determined EC50 values were used to calculate the observed PfPK9 Kd and reported values are the average of 2-3 independent experiments.
Stable cell line generation. The P. falciparum PK9 gene (PlasmoDB accession #PF3D7_1315100) was cloned into the pEGFP-C1 mammalian expression vector (Clontech) in frame with a […] GFP tag. For screening, HEK293 cells were transfected with the resulting PfPK9-pEGFP-C1 vector to generate HEK293-GFP-PfPK9 expressing cells using X-tremeGENE HP transfection reagent (Roche) per the manufacturer instructions. Briefly, the culture medium was replaced at 48 hours post-transfection with medium supplemented with 1 mg/mL G418 sulfate (Life Technologies) to select for stably transfected cells. Following stable cell selection, fluorescence activated cell sorting (FACS) was used to enrich for GFP-PfPK9 expressing cells. Subsequently, FACS sorted HEK293-GFP-PfPK9 cells were cultured with medium supplemented with 0.5 mg/mL G418 sulfate for all following experiments. Protein expression was verified by Western blot analysis probing for anti-GFP and by fluorescence intensity using an EnVision (PerkinElmer) system.
All 14 positive molecules were also tested for their binding affinity to PfPK9 using an optimized ATP-competitive binding assay. EC50 values ranging from low μM to low mM were observed and these EC50 values were used to derive dissociation constants as described previously. […]

In the next data set the test system is HepG2 cells. Put plainly: HepG2 cell viability / cytotoxicity. The format is cell-based, human. The method, then:
(§1) Cell-based anti-Plasmodium assays. For liver stage assays, 15,000 HepG2 or 8,000 Huh7 cells/well were added to 384-well microtiter plates using a multichannel pipette (Rainin). After 2 hours at 37° C., compounds (0-100 μM) were added to cells in duplicate or triplicate in a final concentration of 1% DMSO. DMSO was used as the negative control. Following compound incubation at 37° C. for ˜1 hr, harvested luciferase-expressing P. berghei ANKA sporozoites were added to the plates at a density of 3,000 sporozoites/well. P. berghei ANKA sporozoites were obtained from harvesting the salivary glands of infected A. stephensi mosquitoes. The plates were spun for 10 min at 1,000 rpm, and then incubated at 37° C. for ˜45 hrs. […] After ˜45 hours at 37° C., liver cell viability was assessed using CellTiter-Fluor (Promega) and then parasite load was determined using Bright-Glo (Promega). The relative fluorescence and luminescence signal intensity of each well was evaluated with an EnVision System. The luminescence signal in the presence of compounds was normalized to the negative control (DMSO). Dose-response analysis was performed with GraphPad Prism to yield the reported EC50 values.
(§2) Anti-Plasmodium activity was evaluated in the parasite's liver stage using a previously reported high-throughput assay. In this assay, luciferase-expressing P. berghei (murine) parasites are used to infect human hepatoma cells (HepG2) and parasite load is assessed with a luminometer subsequent to evaluating HepG2 viability using a commercially available quantification kit that measures intracellular protease activity.
(§3) Specifically, their ability to inhibit P. berghei infection in two human hepatoma cell lines (HepG2 and Huh7) as well as cytotoxicity against HepG2 and Huh7 cells was determined as described above. Liver cell cytotoxicity was evaluated with two different commercially available assays, one that tests for intracellular protease activity with a fluorescence reporter and another that relies on the luminescent detection of total ATP.

The subject of data set [1] is P. berghei. Put plainly: Liver stage parasite load, luciferase-expressing P. berghei in HepG2 cells. The format is cell-based, Plasmodium berghei ANKA. The settings on record: HepG2 host cells. The protocol: as §1, §2, §3
Data set [2] has as its system P. berghei. Put plainly: Liver stage parasite load, luciferase-expressing P. berghei in Huh7 cells. It is filed as cell-based, Plasmodium berghei ANKA. The note with it: Huh7 host cells, read-out: IC50 Liver state (Huh7). The method, then:
as §1, §3

In a further data set the test system is Huh7 cells. Put plainly: Huh7 cell viability / cytotoxicity. The format is cell-based, human. The method, then:
as §1, with “After 2 hours at 37° C., compounds (0-100 μM) were added to cells in duplicate or triplicate in a final concentration of 1% DMSO.” left out
as §3

Setting [3] is: GFP-PfPK9, Kd calculated from EC50 of ATP pull-down dose-response, read-out: Kd, app.
[4] abbreviates: Plasmodium berghei, HepG2, parasite load.
The mark [5] stands for this setting: Plasmodium berghei, Huh-7, parasite load.

Molecules are shown by their SMILES. pIC50, pKd: −log10 of the molar value. Where “and” joins values, the source holds several entries; their conditions need not be identical. Identical values can stand only once. Like-named read-outs stand apart in the source and are kept apart here.

Sequence of GFP-PfPK9 (Q8IEG4 entry or part of it): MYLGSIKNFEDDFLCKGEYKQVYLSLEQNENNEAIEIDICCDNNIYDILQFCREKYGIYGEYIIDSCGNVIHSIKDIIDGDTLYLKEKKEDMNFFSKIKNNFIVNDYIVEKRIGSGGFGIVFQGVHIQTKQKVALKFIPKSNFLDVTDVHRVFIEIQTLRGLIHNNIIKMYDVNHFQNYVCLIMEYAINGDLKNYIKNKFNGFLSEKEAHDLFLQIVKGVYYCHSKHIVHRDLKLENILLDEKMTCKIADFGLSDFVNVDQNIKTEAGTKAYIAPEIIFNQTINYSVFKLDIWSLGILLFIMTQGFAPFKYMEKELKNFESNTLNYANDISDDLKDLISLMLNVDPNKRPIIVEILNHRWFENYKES

In the case of `CCCn1/c(=N/C(=O)c2cccc(C(N)=O)c2)[nH]c2ccc(/C=C/C(=O)O)cc21` [HS-233], at TAK1-TAB1, the “activity / potency in TAK1 kinase assay” value was “slight reduction in potency”.

`CCCn1/c(=N/C(=O)c2cccc(C(N)=O)c2)[nH]c2cc(/C=C/C(=O)O)ccc21` [HS-234]: the “activity / potency in TAK1 kinase assay” value on TAK1-TAB1 is given as “slight reduction in potency”.

In the case of `CCCn1/c(=N/C(=O)c2cccc(C(N)=O)c2)[nH]c2cc(/C=C/C(=O)OC)ccc21` [HS-235], the “activity / potency in TAK1 kinase assay” value on TAK1-TAB1 is recorded as “slight reduction in potency”.

On to `Nc1ncnc2c1ncn2[C@@H]1O[C@H](COP(=O)(O)OP(=O)(O)OP(=O)(O)O)[C@@H](O)[C@H]1O` [ATP, reference compound], for which the pKd on GFP-PfPK9 (native substrate, read-out: apparent Kd of ATP for GFP-PfPK9) was approximately 3.40.

In the case of `CCCn1c(NC(=O)c2cncn2-c2ccc(F)cc2)nc2ccccc21` [compound 3], the “cytotoxicity in HepG2 cells” value with HepG2 cells (concentration not given) is given as “moderate cytotoxicity”. For the same compound, at GFP-PfPK9 (setting [3]), the negative logarithm of the Kd (pKd) is 6.22. The pIC50 was 5.14 in the data set on P. berghei [1] (setting [4]) and 5.40 in the data set with P. berghei [2] (setting [5]).

`CCCn1c(NC(=O)c2nn(-c3ccccc3)cc2OC)nc2ccccc21` [compound 2]: the “cytotoxic effect on cell viability vs DMSO control” value in the data set on HepG2 cells (HepG2, 30 μM) was “significant cytotoxic effect”; in the data set on Huh7 cells (30 μM) it was “significant cytotoxic effect”. Besides, at GFP-PfPK9 (setting [3]), the pKd was ~5.15 and 5.15. Further, the figures for the negative-log IC50 (pIC50) in the data set with P. berghei [1] (setting [4]) and in the data set on P. berghei [2] (setting [5]) were 5.35 and 7.05, respectively.

As for `NC(=O)c1cccc(C(=O)/N=c2\[nH]c3cc(Br)ccc3s2)c1` [HS-232], the “activity / potency in TAK1 kinase assay” value on TAK1-TAB1 is listed as “did not show activity”.

In the case of `O=C(Nc1cccc2cnccc12)C1CCCN(c2cnccn2)C1` (stereo not drawn) [compound 4], the “effect on liver cell viability” value with HepG2 cells (HepG2, concentrations up to 200 μM) is listed as “neither compound 4 or 5 had any significant effects on cell viability”; in the data set on Huh7 cells (concentrations up to 200 μM) it was “neither compound 4 or 5 had any significant effects on cell viability”. Further, the pKd at GFP-PfPK9 (setting [3]) was 5.49. Further, the pIC50 was 4.26 in the data set with P. berghei [1] (setting [4]), 4.26 with P. berghei [1] (parasite load), 4.48 with P. berghei [2] (setting [5]) and 4.48 with P. berghei [2] (parasite load).
